IC50, Activity and inhibition data for 13 compounds are collected here from ChEMBL document CHEMBL2046310, “Synthesis and biological evaluation of novel 4β-(1,3,4-oxadiazole-2-amino)-podophyllotoxin derivatives” (Bioorg Med Chem Lett, 2012).

Experiment [1] relates to SGC-7901. Put plainly: Cytotoxicity against human SGC7901 cells after 72 hrs by MTT assay. The format is functional, cell-based. To be noted: SGC-7901, 72 h. (Tetrazolium assays rely on reduction of a dye to a coloured formazan, in cell work by metabolically active cells.)
In experiment [2] the test system is HeLa. Put plainly: cells. The note with it: Homo sapiens, 72 h.
Description: Cytotoxicity against human HeLa cells after 72 hrs by MTT assay
Experiment [3] concerns Vero. Put plainly: Cytotoxicity against african green monkey Vero cells after 72 hrs by MTT assay. In kind it is cell-based. The note with it: Chlorocebus sabaeus.
Experiment [4] has as its system A549. Kind of experiment: Cytotoxicity against human A549 cells after 72 hrs by MTT assay. To be noted: A549, 72 h. In kind it is functional, cell-based.
Experiment [5] deals with DU-145. Put plainly: Cytotoxicity against human DU145 cells after 72 hrs by MTT assay. The format is functional, cell-based. To be noted: DU-145, 72 h.
Experiment [6] deals with HepG2. Kind of experiment: cells. The note with it: Homo sapiens, HepG2, 72 h.
Description: (§1) Cytotoxicity against human HepG2 cells after 72 hrs by MTT assay
Experiment [7] has as its system L929. Kind of experiment: Cytotoxicity against mouse L929 cells after 72 hrs by MTT assay. The format is cell-based. To be noted: L929, 72 h.
The subject of experiment [8] is SH-SY5Y. Put plainly: Cytotoxicity against human SH-SY5Y cells after 72 hrs by MTT assay. The format is functional, cell-based.
Experiment [9] deals with HepG2. Put plainly: Cell cycle arrest in human HepG2 cells assessed as accumulation at subG1 after 48 hrs by propidium iodide staining-based flow cytometric analysis. The format is functional. Background: A flow cytometer gives signals particle by particle.
For experiment [10], the system named is HepG2. Kind of experiment: Cell cycle arrest in human HepG2 cells assessed as accumulation at S phase after 48 hrs by propidium iodide staining-based flow cytometric analysis. In kind it is functional.
In experiment [11] the test system is HepG2. Put plainly: Induction of apoptosis in human HepG2 cells assessed as late apoptotic to necrotic cells at 0.5 uM after 48 hrs by annexinV/propidium iodide staining-based flow cytometric analysis (reference value: 1.61%). The format is functional.
For experiment [12], the system named is HepG2. Put plainly: Induction of apoptosis in human HepG2 cells assessed as appearance of apoptotic bodies at 0.25 to 2 uM after 48 hrs by Hoechst staining-based microscopic analysis. In kind it is functional, cell-based.
The subject of experiment [13] is HepG2. Put plainly: Induction of apoptosis in human HepG2 cells assessed as late apoptotic to necrotic cells at 2 uM after 48 hrs by annexinV/propidium iodide staining-based flow cytometric analysis (reference value: 1.61%). In kind it is functional.
Experiment [14] concerns HepG2. Kind of experiment: Inhibition of DNA topoisomerase 2alpha protein expression in human HepG2 cells at 0.5 to 1 uM after 48 hrs by Western blot analysis. In kind it is functional, cell-based.
The test system of experiment [15] is HepG2. Kind of experiment: Induction of apoptosis in human HepG2 cells assessed as early apoptotic cells at 0.5 uM after 48 hrs by annexinV/propidium iodide staining-based flow cytometric analysis (reference value: 0.47%). The format is functional.
Experiment [16] concerns HepG2. Kind of experiment: Inhibition of DNA topoisomerase 2beta mRNA expression in human HepG2 cells at 0.5 to 8 uM after 6 hrs by RT-PCR analysis. The format is functional, cell-based.
For experiment [17], the system named is HepG2. Put plainly: Induction of apoptosis in human HepG2 cells assessed as early apoptotic cells at 0.25 uM after 48 hrs by annexinV/propidium iodide staining-based flow cytometric analysis (reference value: 0.47%). The format is functional.
Experiment [18] deals with HepG2. The note with it: Homo sapiens.
Description: as §1
For experiment [19], the system named is HepG2. Put plainly: Induction of apoptosis in human HepG2 cells assessed as early apoptotic cells at 1 uM after 48 hrs by annexinV/propidium iodide staining-based flow cytometric analysis (reference value: 0.47%). In kind it is functional.
Experiment [20] relates to HepG2. Kind of experiment: Induction of apoptosis in human HepG2 cells assessed as early apoptotic cells at 2 uM after 48 hrs by annexinV/propidium iodide staining-based flow cytometric analysis (reference value: 0.47%). The format is functional.
Experiment [21] has as its system HepG2. Kind of experiment: Cytotoxicity against human HepG2 cells by MTT assay. In kind it is functional, cell-based. The note with it: TDE = time-dependent effect.
Experiment [22] relates to HepG2. Put plainly: Induction of apoptosis in human HepG2 cells assessed as late apoptotic to necrotic cells at 0.25 uM after 48 hrs by annexinV/propidium iodide staining-based flow cytometric analysis (reference value: 1.61%). In kind it is functional.
For experiment [23], the system named is HepG2. Put plainly: Induction of apoptosis in human HepG2 cells assessed as […] of nuclear fragment at 0.25 to 2 uM after 48 hrs by Hoechst staining-based microscopic analysis. In kind it is functional, cell-based.
The test system of experiment [24] is HepG2. Kind of experiment: Induction of apoptosis in human HepG2 cells assessed as late apoptotic to necrotic cells at 1 uM after 48 hrs by annexinV/propidium iodide staining-based flow cytometric analysis (reference value: 1.61%). In kind it is functional.

Activity calls are given as the source filed them. The rule behind the calls is not given here.

The IC50 is the concentration needed to halve the response being measured.

Regarding `COc1cc([C@@H]2c3cc4c(cc3[C@@H](O[C@@H]3O[C@@H]5CO[C@@H](C)O[C@H]5[C@H](O)[C@H]3O)[C@H]3COC(=O)[C@H]23)OCO4)cc(OC)c1O` [ETOPOSIDE], the half-maximal inhibitory concentration (IC50) in [1] (read-out: IC50) worked out at 12.1 µM; in experiment [2] it was 96.3 µM; in experiment [3], 31.1 µM; in [4] it was 10.1 µM; in [5], 64.3 µM; in experiment [6], 5.48 µM. The half-inhibitory concentration (IC50) amounted to 1 µM in experiment [7] and 5.37 µM in experiment [8].

With `O=c1[nH]cc(F)c(=O)[nH]1` [FLUOROURACIL], the IC50 in [1] was 14.5 µM; in experiment [2], 16 µM; in [3], more than 100 µM; in experiment [5] it was 12.3 µM; in experiment [6], 32.2 µM; in experiment [7], 1.38 µM. The compound also came in with an IC50 in [8] of 1.09 µM.

Regarding `COc1cc([C@@H]2c3cc4c(cc3[C@@H](Nc3nnc(-c5ccccc5)o3)[C@H]3COC(=O)[C@H]23)OCO4)cc(OC)c1OC`, the 50% inhibitory concentration (IC50) in [1] (read-out: IC50) is more than 100 µM; in [2], 85.3 µM; in experiment [3], more than 100 µM; in experiment [5] it was more than 100 µM; in experiment [6] it was 74.2 µM; in [7], more than 100 µM. This compound also displayed an IC50 in [8] of 26.9 µM.

In the case of `COc1cc([C@@H]2c3cc4c(cc3[C@@H](Nc3nnc(-c5cccnc5)o3)[C@H]3COC(=O)[C@H]23)OCO4)cc(OC)c1OC`, the IC50 in experiment [1] (read-out: IC50) is more than 100 µM; in [2] it was more than 100 µM; in [3], more than 100 µM; in experiment [4] it was more than 100 µM; in experiment [5], more than 100 µM; in experiment [6], 72.8 µM. The half-maximal inhibitory concentration (IC50) in experiment [7] is 54.6 µM; in experiment [8], 22.5 µM.

`COc1cc([C@@H]2c3cc4c(cc3[C@@H](Nc3nnc(C)o3)[C@H]3COC(=O)[C@H]23)OCO4)cc(OC)c1O`: the half-inhibitory concentration (IC50) in experiment [1] (read-out: IC50) is 9.76 µM; in [2] it was 18.8 µM; in [3], 46.1 µM; in experiment [4], more than 100 µM; in experiment [5], 60.6 µM; in experiment [6], 17.9 µM. The half-inhibitory concentration (IC50) in experiment [7] worked out at 4.82 µM; in experiment [8] it was 4.61 µM.

Turning to `COc1cc([C@@H]2c3cc4c(cc3[C@@H](Nc3nnco3)[C@H]3COC(=O)[C@H]23)OCO4)cc(OC)c1OC`, the IC50 in experiment [1] (read-out: IC50) is more than 100 µM; in [2], more than 100 µM; in experiment [3], 15.4 µM; in experiment [4] it was more than 100 µM; in [5] it was 11.3 µM; in experiment [6], 11.8 µM. The half-maximal inhibitory concentration (IC50) in experiment [7] was 43.3 µM; in experiment [8] it was 25.8 µM.

As for `COc1cc([C@@H]2c3cc4c(cc3[C@@H](Nc3nnc(C)o3)[C@H]3COC(=O)[C@H]23)OCO4)cc(OC)c1OC`, the Activity result was “Dose-dependent effect” in experiment [9]; “Dose-dependent effect” in experiment [10]; 2.77% in experiment [11]; 30.27% in experiment [13]; 1.45% in [15]; 0.62% in experiment [17]. Besides, the Activity came to 8.03% in experiment [19], 20.68% in experiment [20], 1.31% in [22] and 9.51% in experiment [24]. The concentration for half-maximal inhibition (IC50) in [1] (read-out: IC50) was 38.1 µM; in experiment [2] it was 2.68 µM; in experiment [3], 5.49 µM; in experiment [4] it was more than 100 µM; in experiment [5], more than 100 µM; in [6], 1.51 µM. For the same compound, the results for the IC50 in experiment [7] and in experiment [8] were 19.6 µM and 14.7 µM, respectively. Moreover, the result in experiment [12] and in [23] was Active. Further, the inhibition entry in experiment [14] and in [16] was “Active” throughout. Also, the inhibition result was “Dose-dependent effect” in [18] and “tde” in [21].

Turning to `COc1ccc(-c2nnc(N[C@@H]3c4cc5c(cc4[C@@H](c4cc(OC)c(OC)c(OC)c4)[C@H]4C(=O)OC[C@@H]43)OCO5)o2)cc1`, the half-inhibitory concentration (IC50) in experiment [1] (read-out: IC50) is more than 100 µM; in [2], 17.7 µM; in experiment [3] it was 7.43 µM; in [4], 53.7 µM; in experiment [5] it was 76.1 µM; in experiment [6], 27.9 µM. In addition, the IC50 in experiment [7] worked out at 18.2 µM; in [8], 7.39 µM.

`COc1cc([C@@H]2c3cc4c(cc3[C@@H](Nc3nnc(-c5ccncc5)o3)[C@H]3COC(=O)[C@H]23)OCO4)cc(OC)c1OC`: the concentration for half-maximal inhibition (IC50) in experiment [1] (read-out: IC50) was more than 100 µM; in experiment [2] it was more than 100 µM; in [3], more than 100 µM; in experiment [4], more than 100 µM; in [5], more than 100 µM; in [6] it was 96.6 µM. The IC50 in experiment [7] worked out at 20.5 µM; in experiment [8], 41.5 µM.

With `COc1cc([C@@H]2c3cc4c(cc3[C@@H](Nc3nnc(-c5cccs5)o3)[C@H]3COC(=O)[C@H]23)OCO4)cc(OC)c1OC`, the half-inhibitory concentration (IC50) in experiment [1] (read-out: IC50) is 56.6 µM; in experiment [2], 42.5 µM; in experiment [3] it was more than 100 µM; in experiment [4] it was more than 100 µM; in [5] it was more than 100 µM; in experiment [6] it was 38.8 µM. For the same compound, the IC50 in experiment [7] is 70.9 µM; in experiment [8] it was 20 µM.

Regarding `COc1cc([C@@H]2c3cc4c(cc3[C@@H](Nc3nnc(-c5ccc([N+](=O)[O-])cc5)o3)[C@H]3COC(=O)[C@H]23)OCO4)cc(OC)c1OC`, the half-maximal inhibitory concentration (IC50) in experiment [1] (read-out: IC50) is more than 100 µM; in experiment [2], more than 100 µM; in [5], more than 100 µM; in experiment [6], more than 100 µM; in experiment [7], more than 100 µM; in experiment [8], 16.6 µM.

Consider `COc1cc([C@@H]2c3cc4c(cc3[C@@H](Nc3nnc(-c5ccco5)o3)[C@H]3COC(=O)[C@H]23)OCO4)cc(OC)c1OC`, for which the IC50 is 58.9 µM in [2]; more than 100 µM in experiment [3]; 69.2 µM in [4]; 35.4 µM in experiment [5]; 38.8 µM in [6]; more than 100 µM in [7]. The compound also had an IC50 in [8] of 29.5 µM.

As to `COc1cc([C@@H]2c3cc4c(cc3[C@H](O)[C@H]3COC(=O)[C@H]23)OCO4)cc(OC)c1OC` [PODOFILOX], the IC50 was 2.95 µM in [1] (read-out: IC50); 7.58 µM in experiment [2]; 1.78 µM in experiment [3]; 13.6 µM in experiment [4]; more than 100 µM in [5]; 2.27 µM in experiment [6]. Moreover, the IC50 in experiment [7] came out at 1.37 µM; in experiment [8] it was 2.54 µM.
